Assay results taken from BindingDB's records for doi:10.1016/0014-2999(88)90158-6 (Pharmakologisches Institut, 1988).

How the values were obtained:
[1] = molecular target: Adenosine receptor A2a (Homo sapiens, UniProt P29274)
[2] = molecular target: T1, Adenosine receptor A1 (Rattus norvegicus, UniProt P25099)
T1 sequence (P25099 whole entry): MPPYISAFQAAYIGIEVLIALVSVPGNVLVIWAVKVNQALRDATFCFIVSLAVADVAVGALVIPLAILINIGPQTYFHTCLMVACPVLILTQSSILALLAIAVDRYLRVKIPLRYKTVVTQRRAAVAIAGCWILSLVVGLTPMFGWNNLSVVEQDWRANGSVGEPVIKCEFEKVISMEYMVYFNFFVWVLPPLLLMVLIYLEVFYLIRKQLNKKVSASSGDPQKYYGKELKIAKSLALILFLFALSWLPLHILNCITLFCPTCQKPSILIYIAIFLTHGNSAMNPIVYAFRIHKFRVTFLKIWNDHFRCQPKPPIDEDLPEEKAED

Sequence of Adenosine receptor A2a (P29274 whole entry): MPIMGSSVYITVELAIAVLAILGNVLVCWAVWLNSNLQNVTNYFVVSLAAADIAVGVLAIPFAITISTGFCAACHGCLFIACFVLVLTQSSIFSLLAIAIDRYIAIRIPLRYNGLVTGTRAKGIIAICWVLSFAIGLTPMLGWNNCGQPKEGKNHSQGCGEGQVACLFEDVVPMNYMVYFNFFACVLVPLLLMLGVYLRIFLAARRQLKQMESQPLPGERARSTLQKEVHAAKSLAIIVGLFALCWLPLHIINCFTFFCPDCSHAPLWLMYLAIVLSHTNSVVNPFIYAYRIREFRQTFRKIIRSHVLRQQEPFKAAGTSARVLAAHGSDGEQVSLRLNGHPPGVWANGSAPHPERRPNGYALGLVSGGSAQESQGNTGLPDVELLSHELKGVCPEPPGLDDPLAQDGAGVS

Ki [1] [µM] | Ki [2] [µM] | SMILES
> 10 |  | OC[C@H]1CC[C@H](n2cnc3c(NC4CCCCC4)ncnc32)O1 [alpha-ddCHA]
> 10 | 4.8 | OC[C@@H]1CC[C@H](n2cnc3c(NC4CCCCC4)ncnc32)O1 [ddCHA]
